Measurements taken from patent publication US9249163B2, “PDE10a inhibitors for the treatment of type II diabetes” (Janssen Pharmaceutica, NV, priority 2013, dated 2016).
Counter-ions that a name gives are not always drawn.

Tests used:
[1] = molecular target: Human recombinant PDE10A2 (Homo sapiens (Human), UniProt Q9Y233); assay: In vitro hPDE10a (human recombinant PDE10A2, scintillation proximity assay); type: biochemical; conditions: human recombinant PDE10A2, 60 nM cAMP, 60 min at room temperature; read-out: hPDE10a2 IC50
Chain of Human recombinant PDE10A2 (Q9Y233 267-1055): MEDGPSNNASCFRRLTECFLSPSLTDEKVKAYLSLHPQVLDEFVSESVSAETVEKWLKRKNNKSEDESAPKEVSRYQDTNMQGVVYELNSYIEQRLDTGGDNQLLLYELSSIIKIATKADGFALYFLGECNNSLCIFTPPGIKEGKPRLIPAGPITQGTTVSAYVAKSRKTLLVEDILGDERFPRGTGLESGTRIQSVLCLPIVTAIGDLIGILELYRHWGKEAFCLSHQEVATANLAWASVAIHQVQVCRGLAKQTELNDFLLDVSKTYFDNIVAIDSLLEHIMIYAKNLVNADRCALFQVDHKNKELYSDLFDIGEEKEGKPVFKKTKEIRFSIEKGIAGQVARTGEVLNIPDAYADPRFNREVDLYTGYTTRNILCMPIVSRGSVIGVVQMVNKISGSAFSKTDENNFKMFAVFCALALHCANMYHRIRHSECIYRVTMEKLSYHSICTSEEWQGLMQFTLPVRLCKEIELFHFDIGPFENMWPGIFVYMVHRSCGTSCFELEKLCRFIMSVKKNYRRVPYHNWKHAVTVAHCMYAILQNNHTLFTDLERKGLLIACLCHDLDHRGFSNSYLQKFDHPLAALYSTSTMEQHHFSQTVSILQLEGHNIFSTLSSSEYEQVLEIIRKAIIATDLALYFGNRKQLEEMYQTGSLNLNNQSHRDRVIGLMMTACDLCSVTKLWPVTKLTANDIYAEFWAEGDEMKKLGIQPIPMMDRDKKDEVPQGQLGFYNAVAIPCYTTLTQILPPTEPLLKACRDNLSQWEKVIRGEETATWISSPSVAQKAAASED

[2] = molecular target: Rat recombinant PDE10a (rPDE10a) (Rattus norvegicus (Rat), UniProt Q9QYJ6); assay: In vitro assay PDE10a (rat recombinant PDE10a, SPA); type: biochemical; conditions: 60 nM cAMP, 60 min at rt, read-out: rPDE10a2 IC50
Chain of Rat recombinant PDE10a (rPDE10a) (Q9QYJ6 whole entry): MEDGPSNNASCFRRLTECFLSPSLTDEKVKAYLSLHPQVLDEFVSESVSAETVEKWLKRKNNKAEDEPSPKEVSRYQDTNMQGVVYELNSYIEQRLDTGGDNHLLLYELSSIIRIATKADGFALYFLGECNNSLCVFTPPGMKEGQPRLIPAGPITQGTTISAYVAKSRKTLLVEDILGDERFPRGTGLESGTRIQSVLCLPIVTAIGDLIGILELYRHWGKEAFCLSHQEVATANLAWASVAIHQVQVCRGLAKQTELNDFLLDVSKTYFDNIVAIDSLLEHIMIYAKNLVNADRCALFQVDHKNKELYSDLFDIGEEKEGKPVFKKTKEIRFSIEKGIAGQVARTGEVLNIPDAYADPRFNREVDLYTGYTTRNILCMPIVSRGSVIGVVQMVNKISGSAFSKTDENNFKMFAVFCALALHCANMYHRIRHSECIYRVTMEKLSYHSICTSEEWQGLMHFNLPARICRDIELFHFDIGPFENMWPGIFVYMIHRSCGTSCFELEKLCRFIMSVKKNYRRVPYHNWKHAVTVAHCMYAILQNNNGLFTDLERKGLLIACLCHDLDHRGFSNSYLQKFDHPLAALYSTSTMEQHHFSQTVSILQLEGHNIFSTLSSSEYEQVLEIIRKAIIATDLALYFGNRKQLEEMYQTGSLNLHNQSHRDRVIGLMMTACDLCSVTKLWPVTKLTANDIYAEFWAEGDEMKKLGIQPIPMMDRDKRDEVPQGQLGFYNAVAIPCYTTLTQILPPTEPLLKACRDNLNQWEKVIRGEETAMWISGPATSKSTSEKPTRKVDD
Summary of the method: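 Rat PDE10a expressed in Sf9 cells (baculovirus) and Ni-sepharose purified. Incubated with compound for 60 min at rt in 50 mM Tris pH 7.8, 8.3 mM MgCl2, 1.7 mM EGTA with 60 nM cAMP plus 0.008 μCi ^3H-cAMP (final), 1% DMSO. Read-out by PDE SPA bead scintillation counting (cpm), no-enzyme blank.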

IC50 [1] [nM] | IC50 [2] [nM] | SMILES
3 | < 1 | C(=C\c1cn2c(-c3ccc(-c4nnn[nH]4)nc3)cnc(N3CCOCC3)c2n1)/c1ccc2ccccc2n1 [Cpd 96, (E)-4-(5-(6-(1H-Tetrazol-5-yl)pyridin-3-yl)-2-(2-(quinolin-2-yl)vinyl)imidazo[1,2-a]pyrazin-8-yl)morpholine]
282 | 245 | COc1cc(-c2ncc(-c3ccc(N4CCNCC4)nc3)n3cc(COc4ccc5ccccc5n4)nc23)ccn1 [Cpd 82]
35 | 23 | C1=C(c2ccc(-c3cnc(N4CCOCC4)c4nc(COc5ccc6ccccc6n5)cn34)cn2)CCNC1 [Cpd 108, 4-(2-((quinolin-2-yloxy)methyl)-5-(1′,2′,3′,6′-tetrahydro-[2,4′-bipyridin]-5-yl)imidazo[1,2-a]pyrazin-8-yl)morpholine methane sulfonic acid salt]
2630 | 3630 | c1cnc(OCc2cn3c(-c4ccc(N5CCNCC5)nc4)cnc(N4CCOCC4)c3n2)nc1 [Cpd 116, 4-(5-(6-(piperazin-1-yl)pyridin-3-yl)-2-((pyrimidin-2-yloxy)methyl)imidazo[1,2-a]pyrazin-8-yl)morpholine trifluoroacetic acid salt]
78 | 30 | OC1CCN(c2ncc(-c3ccc(N4CCNCC4)nc3)n3cc(COc4ccc5ccccc5n4)nc23)CC1 [Cpd 118, 1-(5-(6-(Piperazin-1-yl)pyridin-3-yl)-2-((quinolin-2-yloxy)methyl)imidazo[1,2-a]pyrazin-8-yl)piperidin-4-ol trifluoroacetic acid salt]
1620 | 871 | Clc1c(N2CC(c3ccc4ccccc4n3)C2)nc2c(N3CCOCC3)ncc(-c3ccc(N4CCNCC4)nc3)n12 [Cpd 132, 4-(3-Chloro-5-(6-(piperazin-1-yl)pyridin-3-yl)-2-(3-(quinolin-2-yl)azetidin-1-yl)imidazo[1,2-a]pyrazin-8-yl)morpholine trifluoroacetic acid salt]
14 | 16 | NS(=O)(=O)c1ccc(-c2cnc(N3CCOCC3)c3nc(COc4ccc5ccccc5n4)cn23)cn1 [Cpd 86, 5-(8-Morpholino-2-((quinolin-2-yloxy)methyl)imidazo[1,2-a]pyrazin-5-yl)pyridine-2-sulfonamide trifluoroacetic acid salt]
224 | 151 | CC(=O)N1CCN(c2ncc(-c3ccc(N4CCNCC4)nc3)n3cc(COc4ccc5ccccc5n4)nc23)CC1 [Cpd 113]
224 | 204 | c1ccc2nc(N3CC(c4cn5c(-c6ccc(N7CCNCC7)nc6)cnc(N6CCOCC6)c5n4)C3)ccc2c1 [Cpd 99, 4-(5-(6-(piperazin-1-yl)pyridin-3-yl)-2-(1-(quinolin-2-yl)azetidin-3-yl)imidazo[1,2-a]pyrazin-8-yl)morpholine]
1 | 2 | CS(=O)(=O)Nc1ccc(-c2cnc(N3CCOCC3)c3nc(COc4ccc5ccccc5n4)cn23)cn1 [Cpd 85, N-(5-(8-Morpholino-2-((quinolin-2-yloxy)methyl)imidazo[1,2-a]pyrazin-5-yl)pyridin-2-yl)methanesulfonamide]

The next lines start with the compound.

SMILES | IC50 [1] [nM] | IC50 [2] [nM]
O=C(Nc1ccc(-c2cnc(N3CCOCC3)c3nc(/C=C/c4ccc5ccccc5n4)cn23)cc1)N(CCO)CCO [Cpd 71, (E)-1,1-bis(2-hydroxyethyl)-3-(4-(8-morpholino-2-(2-(quinolin-2-yl)vinyl)imidazo[1,2-a]pyrazin-5-yl)phenyl)urea] | 44 | 63
c1ccc2nc(CCc3cn4c(-c5ccc(-c6nnn[nH]6)nc5)cnc(N5CCOCC5)c4n3)ccc2c1 [Cpd 77, 4-(5-(6-(1H-Tetrazol-5-yl)pyridin-3-yl)-2-(2-(quinolin-2-yl)ethyl)imidazo[1,2-a]pyrazin-8-yl)morpholine] | 1 | < 30
O=C(O)CCNC(=O)c1ccc(-c2cnc(N3CCOCC3)c3nc(/C=C/c4ccc5ccccc5n4)cn23)cc1 [Cpd 39, (E)-3-(4-(8-Morpholino-2-(2-(quinolin-2-yl)vinyl)imidazo[1,2-a]pyrazin-5-yl)benzamido)propanoic acid] | 5 | 8
c1ccc2nc(SCc3cn4c(-c5ccc(-c6nnn[nH]6)nc5)cnc(N5CCOCC5)c4n3)ccc2c1 [Cpd 70, 4-(5-(6-(1H-Tetrazol-5-yl)pyridin-3-yl)-2-((quinolin-2-ylthio)methyl)imidazo[1,2-a]pyrazin-8-yl)morpholine] | 2 | 1
O=C(O)c1ccc(-c2cnc(N3CCOCC3)c3nc(C#Cc4nc5ccccc5s4)cn23)cc1 [Cpd 11, 4-(2-(Benzo[d]thiazol-2-ylethynyl)-8-morpholinoimidazo[1,2-a]pyrazin-5-yl)benzoic acid] | 7 | 9
O=C(O)CNC(=O)c1ccc(-c2cnc(N3CCOCC3)c3nc(CCc4ccc5ccccc5n4)cn23)cc1 [Cpd 46, 2-(4-(8-Morpholino-2-(2-(quinolin-2-yl)ethyl)imidazo[1,2-a]pyrazin-5-yl)benzamido)acetic acid] | 7 | 4
O=C1NC(=O)C(c2ccc(-c3cnc(N4CCOCC4)c4nc(CCc5ccc6ccccc6n5)cn34)cc2)O1 (stereo not drawn) [Cpd 26, 5-(4-(8-Morpholino-2-(2-(quinolin-2-yl)ethyl)imidazo[1,2-a]pyrazin-5-yl)phenyl)oxazolidine-2,4-dione trifluoroacetic acid salt] | 6 | 8
O=c1[nH]c2ccc(-c3cnc(N4CCOCC4)c4nc(CCc5ccc6ccccc6n5)cn34)cc2o1 [Cpd 64, 6-(8-morpholino-2-(2-(quinolin-2-yl)ethyl)imidazo[1,2-a]pyrazin-5-yl)benzo[d]oxazol-2(3H)-one trifluoroacetic acid salt] | 13 | 22
O=C(O)CCNc1ccc(-c2cnc(N3CCOCC3)c3nc(CCc4ccc5ccccc5n4)cn23)cc1 [Cpd 23, 3-(4-(8-Morpholino-2-(2-(quinolin-2-yl)ethyl)imidazo[1,2-a]pyrazin-5-yl)phenylamino)propanoic acid trifluoroacetic acid salt] | 8 | 6
Oc1nc2ncc(-c3cnc(N4CCOCC4)c4nc(CCc5ccc6ccccc6n5)cn34)cc2[nH]1 [Cpd 79, 6-(8-Morpholino-2-(2-(quinolin-2-yl)ethyl)imidazo[1,2-a]pyrazin-5-yl)-1H-imidazo[4,5-b]pyridin-2-ol] | 7 | 33
CN1c2cc(-c3cnc(N4CCOCC4)c4nc(/C=C/c5ccc6ccccc6n5)cn34)ccc2NS1(=O)=O [Cpd 43, (E)-1-Methyl-6-(8-morpholino-2-(2-(quinolin-2-yl)vinyl)imidazo[1,2-a]pyrazin-5-yl)-1,3-dihydrobenzo[c][1,2,5]thiadiazole 2,2-dioxide trifluoroacetic acid salt] | 3 | 7
O=C(O)[C@@H]1CCCN1C(=O)c1ccc(-c2cnc(N3CCOCC3)c3nc(/C=C/c4ccc5ccccc5n4)cn23)cc1 [Cpd 45, (S,E)-1-(4-(8-Morpholino-2-(2-(quinolin-2-yl)vinyl)imidazo[1,2-a]pyrazin-5-yl)benzoyl)pyrrolidine-2-carboxylic acid trifluoroacetic acid salt] | 20 | 23
O=S(=O)(NCCO)c1ccc(-c2cnc(N3CCOCC3)c3nc(/C=C/c4ccc5ccccc5n4)cn23)cc1 [Cpd 73, (E)-N-(2-Hydroxyethyl)-4-(8-morpholino-2-(2-(quinolin-2-yl)vinyl)imidazo[1,2-a]pyrazin-5-yl)benzenesulfonamide] | 26 | 40
O=C(O)CCNC(=O)c1ccc(-c2cnc(N3CCOCC3)c3nc(CCc4ccc5ccccc5n4)cn23)cc1 [Cpd 38, 3-(4-(8-Morpholino-2-(2-(quinolin-2-yl)ethyl)imidazo[1,2-a]pyrazin-5-yl)benzamido)propanoic acid] | 2 | 7
CS(=O)(=O)Nc1ccc(-c2cnc(N3CCOCC3)c3nc(CCc4ccc5ccccc5n4)cn23)cn1 [Cpd 78, N-(5-(8-Morpholino-2-(2-(quinolin-2-yl)ethyl)imidazo[1,2-a]pyrazin-5-yl)pyridin-2-yl)methanesulfonamide] | 1 | < 1
Oc1ncn(-c2ccc(-c3cnc(N4CCOCC4)c4nc(CCc5ccc6ccccc6n5)cn34)cc2)n1 [Cpd 51, 1-(4-(8-Morpholino-2-(2-(quinolin-2-yl)ethyl)imidazo[1,2-a]pyrazin-5-yl)phenyl)-1H-1,2,4-triazol-3-ol] | 4 | 5
O=C(O)c1ccc(-c2cnc(N3CCOCC3)c3nc(C#Cc4ccccn4)cn23)cc1 [Cpd 10, 4-(8-Morpholino-2-(pyridin-2-ylethynyl)imidazo[1,2-a]pyrazin-5-yl)benzoic acid] | 12 | 16
O=C1NS(=O)(=O)c2ccc(-c3cnc(N4CCOCC4)c4nc(/C=C/c5ccc6ccccc6n5)cn34)cc21 [Cpd 42, (E)-5-(8-Morpholino-2-(2-(quinolin-2-yl)vinyl)imidazo[1,2-a]pyrazin-5-yl)benzo[d]isothiazol-3(2H)-one 1,1-dioxide] | 1 | 2
COCCOCCOc1ccc(-c2cnc(N3CCOCC3)c3nc(CCc4ccc5ccccc5n4)cn23)cc1 [Cpd 31, 4-(5-(4-(2-(2-Methoxyethoxy)ethoxy)phenyl)-2-(2-(quinolin-2-yl)ethyl)imidazo[1,2-a]pyrazin-8-yl)morpholine] | 1 | 115
O=C(O)Cn1cc(-c2cnc(N3CCOCC3)c3nc(C#Cc4ccc5ccccc5n4)cn23)cn1 [Cpd 9, 2-(4-(8-Morpholino-2-(quinolin-2-ylethynyl)imidazo[1,2-a]pyrazin-5-yl)-1H-pyrazol-1-yl)acetic acid] | 1 | 2
